# In patent US11331299B2, “Medicinal use of serrulatane diterpenes” (The University of Sydney, priority 2016, dated 2022):
# Where two headings read alike, the source gives them in different places.
# System: 280 human cancer cell lines
# Experiment: OncoPanel cell proliferation assay (10-day)
# Type: cell-based
# Conditions: Homo sapiens; for EC50: read-out: Cell Count EC50; for GI50: read-out: Cell Count GI50; for IC50: read-out: Cell Count IC50
# [1] = C-4-II, C-4 II, Female GU - Cervix
# [2] = C-33-A, C-33A, Female GU - Cervix
# [3] = CAL-62, CAL-62, Endocrine - Thyroid
# [4] = CCF-STTG1, CCF-STTG1, CNS - Glioma
# [5] = CGTH-W-1, CGTH-W-1, Endocrine - Thyroid
# [6] = CHP-212, CHP-212, CNS - Neuroblastoma
# [7] = COLO-320-HSR, Colo 320 HSR, Colon
# [8] = COLO-829, COLO 829, Skin (Melanoma)
# [9] = COR-L105, COR-L105, Lung - NSCLC
# [10] = Ca-Ski, Ca Ski, Female GU - Ovary
structure (smiles),measurement,setting,value
"CC(C)=CCC[C@H](CO)[C@@H]1CC[C@@H](C)c2c1cc(C)c(O)c2O [Compound 1, 7,8,18-trihydroxyserrulat-14-ene]",EC50,"BT-474, BT474, Breast",5.41 µM
same,GI50,"BT-474, BT474, Breast",4.95 µM
same,IC50,"BT-474, BT474, Breast",5.46 µM
same,EC50,"BT-549, BT-549, Breast",3.14 µM
same,GI50,"BT-549, BT-549, Breast",3.12 µM
same,IC50,"BT-549, BT-549, Breast",3.14 µM
same,EC50,"BV-173, BV-173, Leukemia",3.8 µM
same,GI50,"BV-173, BV-173, Leukemia",3.79 µM
same,IC50,"BV-173, BV-173, Leukemia",3.8 µM
same,EC50,"BXPC-3, BxPC-3, Pancreas",3.29 µM
same,GI50,"BXPC-3, BxPC-3, Pancreas",3.29 µM
same,IC50,"BXPC-3, BxPC-3, Pancreas",3.3 µM
same,EC50,"BeWo, Placenta",9.06 µM
same,GI50,"BeWo, Placenta",8.92 µM
same,IC50,"BeWo, Placenta",9.06 µM
same,EC50,"C32, Skin (Melanoma)",2.11 µM
same,GI50,"C32, Skin (Melanoma)",1.81 µM
same,IC50,"C32, Skin (Melanoma)",2.11 µM
same,EC50,[1],1.09 µM
same,GI50,[1],1.09 µM
same,IC50,[1],1.1 µM
same,EC50,[2],7.18 µM
same,GI50,[2],7.08 µM
same,IC50,[2],7.18 µM
same,EC50,"CA46, CA46, Lymphoma",2.27 µM
same,GI50,"CA46, CA46, Lymphoma",2.26 µM
same,IC50,"CA46, CA46, Lymphoma",2.27 µM
same,EC50,"CAKI-1, Caki-1, Kidney",2.86 µM
same,GI50,"CAKI-1, Caki-1, Kidney",2.75 µM
same,IC50,"CAKI-1, Caki-1, Kidney",2.86 µM
same,EC50,"CAKI-2, Caki-2, Kidney",4.38 µM
same,GI50,"CAKI-2, Caki-2, Kidney",4.35 µM
same,IC50,"CAKI-2, Caki-2, Kidney",4.38 µM
same,EC50,"CAL-27, Cal 27, Head and Neck",2.16 µM
same,GI50,"CAL-27, Cal 27, Head and Neck",2.15 µM
same,IC50,"CAL-27, Cal 27, Head and Neck",2.16 µM
same,EC50,[3],1.69 µM
same,GI50,[3],1.69 µM
same,IC50,[3],1.69 µM
same,EC50,"CAMA-1, CAMA-1, Breast",3.51 µM
same,GI50,"CAMA-1, CAMA-1, Breast",3.4 µM
same,IC50,"CAMA-1, CAMA-1, Breast",3.51 µM
same,EC50,"CAPAN-1, Capan-1, Pancreas",> 30 µM
same,GI50,"CAPAN-1, Capan-1, Pancreas",> 30 µM
same,IC50,"CAPAN-1, Capan-1, Pancreas",> 30 µM
same,EC50,[4],5.79 µM
same,GI50,[4],5.24 µM
same,IC50,[4],6.6 µM
same,EC50,"CCRF-CEM, CCRFCEM, Leukemia",4.73 µM
same,GI50,"CCRF-CEM, CCRFCEM, Leukemia",4.71 µM
same,IC50,"CCRF-CEM, CCRFCEM, Leukemia",4.73 µM
same,EC50,"CEM/C1, CEM-C1, Leukemia",1.96 µM
same,GI50,"CEM/C1, CEM-C1, Leukemia",1.95 µM
same,IC50,"CEM/C1, CEM-C1, Leukemia",1.96 µM
same,EC50,"CFPAC-1, CFPAC-1, Pancreas",3.65 µM
same,GI50,"CFPAC-1, CFPAC-1, Pancreas",3.65 µM
same,IC50,"CFPAC-1, CFPAC-1, Pancreas",3.66 µM
same,EC50,[5],1.2 µM
same,GI50,[5],1.2 µM
same,IC50,[5],1.2 µM
same,EC50,"CHL-1, CHL-1, Skin (Melanoma)",1.37 µM
same,GI50,"CHL-1, CHL-1, Skin (Melanoma)",1.36 µM
same,IC50,"CHL-1, CHL-1, Skin (Melanoma)",1.37 µM
same,EC50,[6],1.43 µM
same,GI50,[6],1.41 µM
same,IC50,[6],1.43 µM
same,EC50,"CML-T1, CML-T1, Leukemia",1.93 µM
same,GI50,"CML-T1, CML-T1, Leukemia",1.93 µM
same,IC50,"CML-T1, CML-T1, Leukemia",1.93 µM
same,EC50,"COLO 201, Colo 201, Colon",0.92 µM
same,GI50,"COLO 201, Colo 201, Colon",0.92 µM
same,IC50,"COLO 201, Colo 201, Colon",0.92 µM
same,EC50,"COLO 205, Colo 205, Colon",1.31 µM
same,GI50,"COLO 205, Colo 205, Colon",1.31 µM
same,IC50,"COLO 205, Colo 205, Colon",1.31 µM
same,EC50,"COLO 320DM, Colon",3.2 µM
same,GI50,"COLO 320DM, Colon",3.18 µM
same,IC50,"COLO 320DM, Colon",3.2 µM
same,EC50,[7],3.09 µM
same,GI50,[7],3.13 µM
same,IC50,[7],3.13 µM
same,EC50,[8],0.68 µM
same,GI50,[8],0.62 µM
same,IC50,[8],0.68 µM
same,EC50,"COR-L23, COR-L23, Lung - NSCLC",7.18 µM
same,GI50,"COR-L23, COR-L23, Lung - NSCLC",7.14 µM
same,IC50,"COR-L23, COR-L23, Lung - NSCLC",7.18 µM
same,EC50,[9],1.44 µM
same,GI50,[9],1.42 µM
same,IC50,[9],1.45 µM
same,EC50,"CRO-AP2, CRO-AP2, Lymphoma",5.72 µM
same,GI50,"CRO-AP2, CRO-AP2, Lymphoma",5.66 µM
same,IC50,"CRO-AP2, CRO-AP2, Lymphoma",5.72 µM
same,EC50,[10],5.28 µM
same,GI50,[10],5.24 µM
same,IC50,[10],5.29 µM
same,EC50,"Calu-1, Calu1, Lung - NSCLC",3.1 µM
same,GI50,"Calu-1, Calu1, Lung - NSCLC",3.07 µM
same,IC50,"Calu-1, Calu1, Lung - NSCLC",3.1 µM
same,EC50,"Calu-6, Calu6, Lung - NSCLC",9.24 µM
same,GI50,"Calu-6, Calu6, Lung - NSCLC",8.59 µM
